Where “and” joins values, the source holds several entries; their conditions need not be identical. Identical values can stand only once.
Experiments:
Type in all cases: cell-based
AaegOR13 = biological target: T1, AaegOR13 (Aedes aegypti, UniProt Q16Z13); assay: Two-electrode voltage clamp of Xenopus laevis oocytes expressing AaegOR13/Orco (blends, unitary compounds, concentration-response); settings: unitary compounds; for Normalized response, unitary compounds, Average: average of oocytes 1-7; for Raw data (Responses in nA), unitary compounds of Indoles 1, Alcohols 1, Alcohols 3 / Normalized response, unitary compounds of Indoles 1, Alcohols 1, Alcohols 3: individual oocytes 1-7; for Normalized response, unitary compounds of Indoles 1, Alcohols 1, Alcohols 3: normalized per oocyte
T1 sequence (Q16Z13 1-389): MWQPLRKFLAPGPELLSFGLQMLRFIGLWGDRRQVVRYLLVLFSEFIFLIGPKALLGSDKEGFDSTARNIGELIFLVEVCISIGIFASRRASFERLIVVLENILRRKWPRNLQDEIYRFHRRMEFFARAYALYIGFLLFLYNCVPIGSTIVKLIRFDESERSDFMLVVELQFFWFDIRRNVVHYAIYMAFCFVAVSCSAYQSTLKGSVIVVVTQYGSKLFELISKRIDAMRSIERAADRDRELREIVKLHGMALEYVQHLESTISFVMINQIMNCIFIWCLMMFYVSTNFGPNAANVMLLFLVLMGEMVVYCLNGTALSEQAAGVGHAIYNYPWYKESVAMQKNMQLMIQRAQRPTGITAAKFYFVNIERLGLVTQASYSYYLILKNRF
T1 sequence (Q178U6 1-478 partner): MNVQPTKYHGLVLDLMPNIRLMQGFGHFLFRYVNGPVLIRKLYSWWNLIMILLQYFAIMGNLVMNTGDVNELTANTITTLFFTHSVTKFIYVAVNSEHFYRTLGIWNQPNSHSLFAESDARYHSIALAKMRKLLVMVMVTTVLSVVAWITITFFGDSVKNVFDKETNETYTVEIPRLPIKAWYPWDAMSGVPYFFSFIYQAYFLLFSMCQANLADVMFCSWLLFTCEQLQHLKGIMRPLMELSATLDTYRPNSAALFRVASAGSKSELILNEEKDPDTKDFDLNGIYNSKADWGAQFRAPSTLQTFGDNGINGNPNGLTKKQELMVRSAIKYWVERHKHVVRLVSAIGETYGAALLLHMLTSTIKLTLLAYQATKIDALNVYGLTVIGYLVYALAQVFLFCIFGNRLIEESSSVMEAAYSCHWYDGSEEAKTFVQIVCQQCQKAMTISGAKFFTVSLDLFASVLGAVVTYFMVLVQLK
Description: (§1) The coding regions of ten AaegOR genes of interest (S3 File) and AaegOrco were synthesized by Twist Bioscience (San Francisco, CA, USA) and cloned into the pENTR plasmid. The Gateway LR directional cloning system (Invitrogen Corp., Carlsbad, CA, USA) was utilized to subclone AaegOR coding regions into the pSP64t-RFA oocyte expression plasmid. Plasmids were purified using the GeneJet Plasmid Miniprep Kit (ThermoFisher Scientific, Waltham, MA, USA). Purified plasmids were sequenced in both directions to confirm coding regions.
(§2) Chemical compounds (S6 File) used in the deorphanization of AaegORs were purchased from Acros Organics (Morris, NJ, USA), Alfa Aesar (Ward Hill, MA, USA), and ThermoFisher Scientific (Waltham, MA, USA) at the highest purity available. Compounds were stored as 1M stocks in 100% DMSO. Serial dilutions of each compound were prepared in 10% DMSO and blended by chemical class.
(§3) pSP64t-RFA: AaegOR clones were linearized using Xbal, and cRNAs were synthesized using the mMESSAGE mMACHINE ® SP6 kit (Life Technologies, Carlsbad, CA, USA). Xenopus laevis stage V-VII oocytes purchased from Xenopus1 (Dexter, MI, USA) were stored at 18°C in Incubation medium (ND96 96 with 5% dialyzed horse serum, 50μg/mL gentamycin, 100μg/mL streptomycin, 100μg/mL penicillin, and 550μg/mL sodium pyruvate). 30nL of cRNA was injected into multiple oocytes using a microinjection syringe pump (World Precision Instruments, Sarasota, FL, USA) maintained at 18°C for 48–72 hrs. Odorant blends were perfused across individual oocytes for 10–15 seconds, held at a resting membrane potential of -80 mV using an OC-725C oocyte clamp (Warner Instruments, LLC, Hamden, CT, USA). Induced currents were measured indirectly using the two-electrode voltage clamp technique (TEVC). Following each stimulus, currents were allowed to return to baseline before further stimulation. Data was captured using the Digidata 1550 B digitizer and PClamp10 software (Molecular Devices, San Jose, CA, USA). Concentration-response curves were generated by perfusing unitary odorants over oocytes at increasing concentrations from [10^-3M] to [10^-9M]. Data were analyzed using GraphPad Prism 8 (GraphPad Software Inc., La Jolla, CA, USA). At least two biological replicates were conducted at each concentration and for each compound. Data for at least seven oocytes responding to each compound was analyzed (S7 File).

AaegOR8 = biological target: T2, AaegOR8 (Aedes aegypti, UniProt Q16MN0); assay: Two-electrode voltage clamp of Xenopus laevis oocytes expressing AaegOR8/Orco (blends, unitary compounds, concentration-response); settings: Alcohols 2 unitary compounds
T2 sequence (Q16MN0 32-422): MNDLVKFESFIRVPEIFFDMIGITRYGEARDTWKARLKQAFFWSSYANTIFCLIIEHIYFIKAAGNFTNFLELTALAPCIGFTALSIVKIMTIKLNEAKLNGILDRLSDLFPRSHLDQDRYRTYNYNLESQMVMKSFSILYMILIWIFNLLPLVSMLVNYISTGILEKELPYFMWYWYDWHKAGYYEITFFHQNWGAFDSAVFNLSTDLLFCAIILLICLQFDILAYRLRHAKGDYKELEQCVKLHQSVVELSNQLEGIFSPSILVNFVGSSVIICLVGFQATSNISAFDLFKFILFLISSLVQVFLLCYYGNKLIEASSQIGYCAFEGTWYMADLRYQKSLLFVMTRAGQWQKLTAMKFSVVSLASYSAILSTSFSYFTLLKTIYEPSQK
T2 sequence (Q178U6 1-478 partner): T1 sequence (Q178U6 1-478 partner)
Description: as §1, §2, §3

AaegOR71 = biological target: T3, AaegOR71 (Aedes aegypti, UniProt A0A3S7SHD4); assay: Two-electrode voltage clamp of Xenopus laevis oocytes expressing AaegOR71/Orco (blends, unitary compounds, concentration-response); settings: Indoles 2 unitary compounds
T3 sequence (A0A3S7SHD4 1-415): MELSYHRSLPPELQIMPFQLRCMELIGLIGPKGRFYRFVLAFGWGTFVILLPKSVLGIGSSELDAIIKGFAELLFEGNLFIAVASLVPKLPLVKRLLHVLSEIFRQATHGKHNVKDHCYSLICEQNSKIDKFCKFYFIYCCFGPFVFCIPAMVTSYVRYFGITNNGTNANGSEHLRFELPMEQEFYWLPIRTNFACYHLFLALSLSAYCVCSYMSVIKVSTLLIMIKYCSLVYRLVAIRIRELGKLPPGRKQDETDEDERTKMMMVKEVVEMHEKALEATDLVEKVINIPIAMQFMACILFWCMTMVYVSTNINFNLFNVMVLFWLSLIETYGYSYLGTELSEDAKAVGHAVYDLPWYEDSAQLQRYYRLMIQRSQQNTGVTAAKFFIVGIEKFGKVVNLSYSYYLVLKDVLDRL
T3 sequence (Q178U6 1-478 partner): T1 sequence (Q178U6 1-478 partner)
Description: as §1, §2, §3

AaegOR6 = biological target: T4, AaegOR6 (Aedes aegypti, UniProt A0A1S4G757); assay: Two-electrode voltage clamp of Xenopus laevis oocytes expressing AaegOR6/Orco (blends, unitary compounds, concentration-response); settings: Indoles 2 unitary compounds
T4 sequence (A0A1S4G757 1-398): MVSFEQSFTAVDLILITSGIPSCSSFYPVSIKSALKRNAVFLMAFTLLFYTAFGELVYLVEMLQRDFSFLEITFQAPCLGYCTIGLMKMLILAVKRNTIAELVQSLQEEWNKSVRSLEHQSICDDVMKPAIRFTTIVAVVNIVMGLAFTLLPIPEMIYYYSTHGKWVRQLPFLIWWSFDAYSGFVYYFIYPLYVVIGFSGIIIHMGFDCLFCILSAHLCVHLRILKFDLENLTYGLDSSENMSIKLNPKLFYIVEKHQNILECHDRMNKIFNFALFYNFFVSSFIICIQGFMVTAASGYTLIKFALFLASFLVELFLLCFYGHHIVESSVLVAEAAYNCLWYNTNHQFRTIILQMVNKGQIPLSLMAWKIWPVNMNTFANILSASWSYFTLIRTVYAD
T4 sequence (Q178U6 1-478 partner): T1 sequence (Q178U6 1-478 partner)
Description: as §1, §2, §3

Structure (SMILES)	Raw data (Responses in nA), unitary compounds of Indoles 1, Alcohols 1, Alcohols 3 (AaegOR13)	Raw Data (Response in nA) Oocyte 1 (AaegOR71)	Raw Data (Response in nA) Oocyte 2 (AaegOR71)	Raw Data (Response in nA) Oocyte 3 (AaegOR71)	Raw Data (Response in nA) Oocyte 4 (AaegOR71)	Raw Data (Response in nA) Oocyte 5 (AaegOR71)	Raw Data (Response in nA) Oocyte 6 (AaegOR71)	Raw Data (Response in nA) Oocyte 7 (AaegOR71)	Raw Data (Response in nA) Oocyte 8 (AaegOR71)	Raw data (Responses in nA) Oocyte 1 (AaegOR6)	Raw data (Responses in nA) Oocyte 2 (AaegOR6)	Raw data (Responses in nA) Oocyte 3 (AaegOR6)	Raw data (Responses in nA) Oocyte 4 (AaegOR6)	Raw data (Responses in nA) Oocyte 5 (AaegOR6)	Raw data (Responses in nA) Oocyte 6 (AaegOR6)	Raw data (Responses in nA) Oocyte 7 (AaegOR6)	Raw data (Responses in nA) Oocyte 8 (AaegOR6)	other results
C=CC(C)(O)CCC=C(C)C (single isomer, unassigned; (+)) [(+) Linalool]	0.0 nA	–	–	–	–	–	–	–	–	–	–	–	–	–	–	–	–	Normalized response, unitary compounds, Average (AaegOR13): 0.0; Normalized response, unitary compounds of Indoles 1, Alcohols 1, Alcohols 3 (AaegOR13): 0.0
C=CC(C)(O)CCC=C(C)C (single isomer, unassigned; (-)) [(-) Linalool]	0.0 nA (6×) and 5.0 nA	–	–	–	–	–	–	–	–	–	–	–	–	–	–	–	–	Normalized response, unitary compounds, Average (AaegOR13): 0.26; Normalized response, unitary compounds of Indoles 1, Alcohols 1, Alcohols 3 (AaegOR13): 0.0 (6×) and 1.8
CC(C)(C)c1ccc(O)cc1 [4-tert-butylphenol]	10.0 nA and 305.0 nA and 70.0 nA and 85.0 nA and 150.0 nA and 90.0 nA and 55.0 nA	–	–	–	–	–	–	–	–	–	–	–	–	–	–	–	–	–
CC1CCCC2(C)CCCCC12O (stereo not drawn) [Geosmin]	–	–	–	–	–	–	–	–	–	–	–	–	–	–	–	–	–	Raw data (Responses in nA) Oocyte 1 (AaegOR8; oocyte 1): 0.0 nA; Raw data (Responses in nA) Oocyte 2 (AaegOR8; oocyte 2): 0.0 nA; Raw data (Responses in nA) Oocyte 3 (AaegOR8; oocyte 3): 0.0 nA; Raw data (Responses in nA) Oocyte 4 (AaegOR8; oocyte 4): 0.0 nA; Raw data (Responses in nA) Oocyte 5 (AaegOR8; oocyte 5): 0.0 nA; Raw data (Responses in nA) Oocyte 6 (AaegOR8; oocyte 6): 0.0 nA; Raw data (Responses in nA) Oocyte 7 (AaegOR8; oocyte 7): 0.0 nA; Raw data (Responses in nA) Oocyte 8 (AaegOR8; oocyte 8): 0.0 nA
O=C1Nc2ccccc2C1=O [Isatin]	–	150 nA	0 nA	0 nA	0 nA	0 nA	0 nA	10 nA	0 nA	0.0 nA	0.0 nA	10.0 nA	0.0 nA	0.0 nA	0.0 nA	0.0 nA	0.0 nA	–
O=C1Cc2ccccc2N1 [Oxindole]	–	0 nA	20 nA	0 nA	10 nA	0 nA	10 nA	5 nA	20 nA	0.0 nA	0.0 nA	0.0 nA	0.0 nA	0.0 nA	0.0 nA	0.0 nA	10.0 nA	–
c1ccc2ncncc2c1 [Quinazoline]	–	70 nA	440 nA	45 nA	250 nA	40 nA	150 nA	50 nA	40 nA	0.0 nA	0.0 nA	0.0 nA	0.0 nA	0.0 nA	10.0 nA	0.0 nA	0.0 nA	–
c1ccc2ncccc2c1 [Quinoline]	–	900 nA	2210 nA	330 nA	1050 nA	300 nA	760 nA	210 nA	250 nA	0.0 nA	0.0 nA	0.0 nA	0.0 nA	0.0 nA	10.0 nA	10.0 nA	0.0 nA	–
c1ccc2nccnc2c1 [Quinoxaline]	–	0 nA	620 nA	85 nA	370 nA	60 nA	200 nA	80 nA	70 nA	0.0 nA	0.0 nA	0.0 nA	0.0 nA	0.0 nA	0.0 nA	0.0 nA	0.0 nA	–
O=Cc1c[nH]c2ccccc12 [indole-3-carboxyaldehyde]	0.0 nA (2×) and 5.0 nA (5×)	–	–	–	–	–	–	–	–	–	–	–	–	–	–	–	–	–
